The values below come from paper PMC12362783 (Advanced Science, 2025).

For one series, the target named is PARP1 (Homo sapiens, UniProt P09874). The series can be described thus: PARP enzymatic inhibition ELISA (PARP1). The format is biochemical. The conditions noted are these: n = 3, mean ± SD. Background: In an ELISA, binding on a coated surface is turned into a signal by an enzyme label.
Another series relates to MDA‐MB‐436. The series can be described thus: Cell growth inhibition, CellTiter‐Glo (CTG). In kind it is cell-based. The conditions noted are these: Homo sapiens, MDA-MB-436, 120 h; CTG, 5 days, n = 3. The procedure:
All cells were grown in a humidified incubator at 37 °C and 5% CO2.
Growth viability was determined by the CellTiter‐Glo luminescent viability assay (Promega) 5 days after drug treatment. Cell viability was measured immediately after dosing (Day 0) and after 5 days of incubation using CellTiter‐Glo (CTG, Promega, G7573). Relative viability was calculated by normalizing the raw luminescence counts of the treated groups to those of the DMSO control groups. IC₅₀ values were calculated using sigmoidal dose‐response curve fitting with GraphPad Prism 9.0 software.

Another series has as its target DNA‐PK (Homo sapiens, UniProt P78527). The series can be described thus: PIKK family kinase selectivity. In kind it is biochemical.
The target in another series is PI3Kα (Homo sapiens, UniProt P42336). The series can be described thus: PIKK family kinase selectivity. In kind it is biochemical.
Another series concerns the target ATM (Homo sapiens, UniProt Q13315). Put plainly: PIKK family kinase selectivity. The format is biochemical.
The target of the next series is mTOR (Homo sapiens, UniProt P42345). Put plainly: PIKK family kinase selectivity. In kind it is biochemical. The note with it: @2500 nM; read-out: mTOR inhibitory rate at certain concentration.
Series [1] deals with MDA‐MB‐231 cells. Put plainly: Cell cycle assay, flow cytometry (PI). The format is cell-based. The conditions noted are these: MDA‐MB‐231, 48 h; A7, B8 0.5 and 1.0 µM, controls 1.0 µM. The procedure:
(§1) The cell cycle analysis was performed with cells seeded in 6‐well plates in growth media. The cells were allowed to attach overnight (8 h). The cultures were treated with different tested drugs for 48 h. After treatment, cells were collected and fixed with 70% pre‐cold ethanol in PBS and stored at −20 °C overnight. Then washed the cells with PBS twice, and incubated with 100 µg mL^−1 RNase A at 37 °C for 1 h, stained with propidium iodide for 30 min avoid light at room temperature. The stained cells were analyzed by flow cytometry. The percentages of cells in the G1, S, and G2/M phases were determined. The data were analyzed by FlowJo software (Tree Star, Inc., Ashland, OR).
On the technique in general: In flow cytometry, cells or beads pass a laser one at a time.

Series [2] relates to MDA‐MB‐468 cells. The series can be described thus: Cell cycle assay, flow cytometry (PI). The note with it: MDA‐MB‐468, 48 h; A7, B8 0.5 and 1.0 µM, controls 1.0 µM. In kind it is cell-based. The procedure: as §1
Series [3] in a line: Preliminary safety evaluation in xenografted mice (body weight, animal loss, H&E staining of organs). In kind it is in vivo. The procedure: MDA‐MB‐468 cells (1 × 10^7) were implanted in the right flanks subcutaneously in female nude mice. When the implanted tumor grew to a volume of 110 mm^3, the animals were randomly divided into four groups, each group containing four animals. […] Tumor size and body weights were measured twice a week. On day 28, the mice were euthanized, tumors were harvested and weighed, and vital organs (heart, liver, spleen, lung, and kidney) were collected. Processed samples were saved for further safety evaluation.
The tumor sample and vital organs were immersed in 4% paraformaldehyde for 4 h and transferred to 70% ethanol. Individual lobes of the sample were placed in processing cassettes, dehydrated through a serial alcohol gradient, and embedded in paraffin wax blocks. Thick tissue sections (5 µm) were dewaxed in xylene, rehydrated through decreasing concentrations of ethanol, washed in PBS, and stained with H&E. After staining, the sections were dehydrated through increasing concentrations of ethanol and xylene. Images were acquired on a fluorescent inverted microscope (Nikon DS‐Ri1).

In series [4] the test system is MDA‐MB‐231 cells. The series can be described thus: Colony formation assay. In kind it is cell-based. The conditions noted are these: 1.0 µM, 10 days, vs AZD6738, Olaparib alone or combination. As to the method:
(§2) The colony formation assay was performed with cells seeded in 6‐well plates (10 000 cells/well). After 10 days, cells were fixed with methanol and stained with crystal violet. The number of colonies was counted. Data represent the means ± SD from 3 independent experiments performed in triplicate wells.

Series [5] deals with MDA‐MB‐468 cells. Put plainly: Colony formation assay. In kind it is cell-based. The note with it: 1.0 µM, 10 days, vs AZD6738, Olaparib alone or combination. As to the method: as §2
The test system of series [6] is MDA‐MB‐231 cells. The series can be described thus: Wound‐healing and transwell migration assay. In kind it is cell-based. The conditions noted are these: vs AZD6738 and Olaparib alone or their combination. As to the method: For the wound‐healing assay, MDA‐MB‐231 cells were seeded into 6‐well plates and grown to 80% confluence. A scratch was made in the cell monolayer using a 20 µL pipette tip, and the cells were washed with PBS to remove floating cells and debris. The cells were then incubated in serum‐free medium. Cells are divided into control and drug treatment Cells in the scratched area were imaged at 0 and 48 h using microscopy, and the distance traveled by cells at the leading edge of the wound at each time point was measured. To assess cell migration, a transwell assay was performed. […] Following 24 h of incubation, the filters were fixed in 4% paraformaldehyde, stained with 0.1% crystal violet, and then imaged and counted under a microscope to determine the number of invading cells. To assess cell invasion, the transwell plate was coated with a layer of Matrigel, and the rest procedure is similar to what has been described above.

Series [7] has as its system MDA‐MB‐231 cells. The series can be described thus: Comet assay, DNA damage. In kind it is cell-based. The conditions noted are these: 24 h, vs AZD6738, Olaparib, and their combination.
The subject of series [8] is MDA‐MB‐231 cells. Put plainly: Immunofluorescence of γH2AX foci. In kind it is cell-based. The conditions noted are these: 48 h, vs Olaparib, AZD6738, and their combination. As to the method: (§3) Cells were fixed for 30 min in 4% paraformaldehyde and permeabilized for 30 min in 1% Triton X‐100 at 4 °C. After three rinses with PBS, cells were blocked for 30 min with 5% BSA and incubated with γH2AX antibody (1/1000 dilution, CST#9718) in 5% BSA overnight at 4 °C, after which they were rinsed three times with PBS and incubated with the secondary antibodies at room temperature for 1 h. Then, cells were washed with PBS three times, and the nucleus was stained with DAPI and fixed. Finally, images were visualized with the microscope and analyzed.

Series [9] deals with MDA‐MB‐468 cells. The series can be described thus: Immunofluorescence of γH2AX foci. The conditions noted are these: 48 h, vs Olaparib, AZD6738, and their combination. The format is cell-based. As to the method: as §3
Series [10] in a line: Oral bioavailability (statement, no method). The format is in vivo. The note with it: preclinical models; necessitates I.P. delivery.

Chain of PARP1 (P09874 whole entry): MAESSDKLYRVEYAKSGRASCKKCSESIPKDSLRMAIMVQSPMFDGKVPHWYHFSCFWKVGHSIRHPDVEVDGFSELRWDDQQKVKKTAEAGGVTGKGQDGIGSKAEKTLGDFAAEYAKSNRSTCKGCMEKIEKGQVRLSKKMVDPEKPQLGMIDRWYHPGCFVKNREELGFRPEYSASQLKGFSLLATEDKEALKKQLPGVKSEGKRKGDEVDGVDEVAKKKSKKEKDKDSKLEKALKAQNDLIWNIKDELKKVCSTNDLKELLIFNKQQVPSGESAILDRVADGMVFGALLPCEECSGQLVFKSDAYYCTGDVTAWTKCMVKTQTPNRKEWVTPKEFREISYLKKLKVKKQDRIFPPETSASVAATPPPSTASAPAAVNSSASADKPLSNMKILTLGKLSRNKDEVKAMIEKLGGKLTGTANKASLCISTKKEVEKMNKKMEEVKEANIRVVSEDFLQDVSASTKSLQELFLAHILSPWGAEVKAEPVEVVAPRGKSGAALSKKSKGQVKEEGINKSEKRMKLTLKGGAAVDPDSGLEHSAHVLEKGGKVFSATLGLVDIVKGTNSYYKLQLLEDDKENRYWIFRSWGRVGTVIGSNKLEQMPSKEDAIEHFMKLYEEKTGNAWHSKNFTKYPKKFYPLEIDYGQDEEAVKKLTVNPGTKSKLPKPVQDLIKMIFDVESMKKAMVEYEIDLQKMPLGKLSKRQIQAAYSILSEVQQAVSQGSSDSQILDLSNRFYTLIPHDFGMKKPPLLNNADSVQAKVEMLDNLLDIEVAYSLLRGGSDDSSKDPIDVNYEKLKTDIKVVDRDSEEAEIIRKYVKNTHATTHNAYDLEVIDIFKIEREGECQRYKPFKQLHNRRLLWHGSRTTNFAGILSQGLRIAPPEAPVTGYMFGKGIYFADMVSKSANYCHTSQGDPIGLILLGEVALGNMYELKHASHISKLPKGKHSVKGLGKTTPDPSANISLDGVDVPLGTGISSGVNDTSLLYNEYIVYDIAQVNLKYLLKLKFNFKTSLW
Chain of PI3Kα (P42336 whole entry, species assumed): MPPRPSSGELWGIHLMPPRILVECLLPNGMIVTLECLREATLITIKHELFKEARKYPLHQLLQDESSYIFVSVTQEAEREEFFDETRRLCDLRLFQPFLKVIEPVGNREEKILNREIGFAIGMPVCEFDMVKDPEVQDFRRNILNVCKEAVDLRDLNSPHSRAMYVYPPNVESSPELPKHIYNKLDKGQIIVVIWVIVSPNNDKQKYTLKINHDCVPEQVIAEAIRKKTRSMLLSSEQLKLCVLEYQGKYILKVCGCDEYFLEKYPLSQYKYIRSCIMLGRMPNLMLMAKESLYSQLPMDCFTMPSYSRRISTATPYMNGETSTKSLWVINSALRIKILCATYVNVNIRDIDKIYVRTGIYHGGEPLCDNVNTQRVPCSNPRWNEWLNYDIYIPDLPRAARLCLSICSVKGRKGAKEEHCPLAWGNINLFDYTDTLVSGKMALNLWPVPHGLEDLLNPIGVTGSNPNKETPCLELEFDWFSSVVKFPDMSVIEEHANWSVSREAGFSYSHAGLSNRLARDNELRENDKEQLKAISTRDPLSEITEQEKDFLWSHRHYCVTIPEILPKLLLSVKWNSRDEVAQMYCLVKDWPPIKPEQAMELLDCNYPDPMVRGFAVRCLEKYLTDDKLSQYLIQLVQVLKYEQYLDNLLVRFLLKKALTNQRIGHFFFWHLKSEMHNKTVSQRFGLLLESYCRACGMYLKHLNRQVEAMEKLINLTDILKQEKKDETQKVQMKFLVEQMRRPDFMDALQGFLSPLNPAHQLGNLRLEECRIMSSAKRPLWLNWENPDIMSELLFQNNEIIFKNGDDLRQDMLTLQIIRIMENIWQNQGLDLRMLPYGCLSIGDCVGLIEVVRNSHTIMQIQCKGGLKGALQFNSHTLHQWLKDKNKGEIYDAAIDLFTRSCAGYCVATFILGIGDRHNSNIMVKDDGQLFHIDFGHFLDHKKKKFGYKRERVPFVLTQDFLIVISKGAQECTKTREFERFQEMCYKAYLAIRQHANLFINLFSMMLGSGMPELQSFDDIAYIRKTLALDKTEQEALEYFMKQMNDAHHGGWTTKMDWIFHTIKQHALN
Chain of PI3Kα (P27986 whole entry partner, species assumed): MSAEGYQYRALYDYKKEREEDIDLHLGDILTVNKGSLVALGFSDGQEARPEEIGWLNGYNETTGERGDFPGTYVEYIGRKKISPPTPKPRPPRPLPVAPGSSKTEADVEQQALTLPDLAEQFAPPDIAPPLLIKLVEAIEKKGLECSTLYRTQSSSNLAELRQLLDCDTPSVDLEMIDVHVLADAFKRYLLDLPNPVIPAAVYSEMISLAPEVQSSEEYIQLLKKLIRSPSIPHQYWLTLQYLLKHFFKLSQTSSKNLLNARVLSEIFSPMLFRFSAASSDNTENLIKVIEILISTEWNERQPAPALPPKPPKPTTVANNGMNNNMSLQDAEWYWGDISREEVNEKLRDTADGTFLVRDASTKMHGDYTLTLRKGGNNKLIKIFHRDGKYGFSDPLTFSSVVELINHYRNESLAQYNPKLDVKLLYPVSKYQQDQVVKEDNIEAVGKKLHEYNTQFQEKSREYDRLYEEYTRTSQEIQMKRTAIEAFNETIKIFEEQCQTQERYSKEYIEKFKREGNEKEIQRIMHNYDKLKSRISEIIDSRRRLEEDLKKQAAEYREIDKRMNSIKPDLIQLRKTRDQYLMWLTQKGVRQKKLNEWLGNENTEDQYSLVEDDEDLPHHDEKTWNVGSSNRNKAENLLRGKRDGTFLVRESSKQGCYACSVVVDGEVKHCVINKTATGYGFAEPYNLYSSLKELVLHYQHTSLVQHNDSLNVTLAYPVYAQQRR

Turning to `C[C@@H]1COCCN1c1cc(CNC(=O)c2ccc(C(=O)N3CCN(C(=O)c4cc(Cc5n[nH]c(=O)c6ccccc56)ccc4F)CC3)cc2)nc(-c2ccnc3[nH]ccc23)n1` [Compound B8, (R)‐4‐(4‐(2‐fluoro‐5‐((4‐oxo‐3,4‐dihydrophthalazin‐1‐yl)methyl)benzoyl)piperazine‐1‐carbonyl)‐N‐((6‐(3‐methylmorpholino)‐2‐(1H‐pyrrolo[2,3‐b]pyridin‐4‐yl)pyrimidin‐4‐yl)methyl) benzamide], the IC50 (in general, the concentration needed to halve the response being measured) at PARP1 is 0.38 ± 0.08 nM; in the series with MDA‐MB‐436, 9 ± 2 nM; on DNA‐PK, more than 5000 nM; against PI3Kα, more than 2500 nM; against ATM, more than 5000 nM. Also, the inhibition at […] on mTOR came out at 10.3%. Also, the “effect on cell cycle distribution” value with MDA‐MB‐231 cells [1] and in the series on MDA‐MB‐468 cells [2] was “markedly increased the proportion of G2/M phase cells” each time. In addition, the “effect on body weight” value in series [3] (B8 25 and 50 mg/kg I.P., 28 days, nude mice) is recorded as “no significant effect on body weight”. Also, in [3] (after 28 days of continuous administration), the “H&E staining of heart, liver, spleen, lungs, and kidneys” value is “did not cause significant changes in organ structure or cellular morphology”. Moreover, the “colony formation rate” value with MDA‐MB‐231 cells [4] and in the series with MDA‐MB‐468 cells [5] was “significantly greater inhibitory effect on the colony formation rate” each time. Moreover, in the series on MDA‐MB‐231 cells [6], the “migratory capacity” value was “superior inhibitory effect on the migratory capacity”. The “comet assay tail intensity” value in the series on MDA‐MB‐231 cells [7] was “markedly increased tail intensity”. The “γH2AX foci formation” value with MDA‐MB‐231 cells [8] and with MDA‐MB‐468 cells [9] was “significantly increased the formation of γH2AX foci” in each case. The oral bioavailability entry in [10] was “poor oral bioavailability”.
